Measured values: ChEMBL document CHEMBL1201862, “PubChem BioAssay data set” (2004)
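48-hour exposure; five concentrations; linearly interpolated endpoints. GI50: concentration for 50% inhibition of growth.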 Activity calls are given as the source filed them. Rule as the data show it: active = GI50 up to about 1.1 µM and inactive = higher.

How the values were obtained:
Test in all cases: NCI tumour cell line growth inhibition, 48 h
[1] = tested on: 786-0
[2] = tested on: A498
[3] = tested on: A549
[4] = tested on: ACHN
[5] = tested on: BT-549
[6] = tested on: CAKI-1
[7] = tested on: COLO 205
[8] = tested on: DU-145
[9] = tested on: EKVX
[10] = tested on: HCC 2998
[11] = tested on: HCT-116
[12] = tested on: HCT-15
[13] = tested on: HL-60
[14] = tested on: HOP-62
[15] = tested on: HOP-92
[16] = tested on: HT-29
[17] = tested on: Hs-578T
[18] = tested on: K562
[19] = tested on: KM12
[20] = tested on: LOX IMVI
[21] = tested on: M14
[22] = tested on: MCF7
[23] = tested on: MDA-MB-231
[24] = tested on: MDA-MB-435
[25] = tested on: MDA-N
[26] = tested on: MOLT-4
[27] = tested on: Malme-3M
[28] = tested on: NCI-H226
[29] = tested on: NCI-H23
[30] = tested on: NCI-H460
[31] = tested on: NCI-H522
[32] = tested on: NCI/ADR-RES
[33] = tested on: OVCAR-3
[34] = tested on: OVCAR-4
[35] = tested on: OVCAR-5
[36] = tested on: OVCAR-8
[37] = tested on: RPMI-8226
[38] = tested on: RXF 393
[39] = tested on: SF-268
[40] = tested on: SF-295
[41] = tested on: SF-539
[42] = tested on: SK-MEL-28
[43] = tested on: SK-MEL-2
[44] = tested on: SK-MEL-5
[45] = tested on: SK-OV-3
[46] = tested on: SN12C
[47] = tested on: SNB-19
[48] = tested on: SR
[49] = tested on: SW-620
[50] = tested on: T47D
[51] = tested on: TK-10
[52] = tested on: U-251
[53] = tested on: UACC-257
[54] = tested on: UACC-62
[55] = tested on: UO-31
[56] = tested on: IGROV-1
[57] = tested on: SNB-75
[58] = tested on: CCRF-CEM
[59] = tested on: PC-3

COc1cc(/C=C2/SC(c3ccccc3)N(c3ccc(NC(C)=O)cc3)C2=O)cc(OC)c1OC (stereo unspecified)
GI50 [1]: > 100 µM (inactive)
GI50 [2]: > 100 µM (inactive)
GI50 [3]: > 100 µM (inactive)
GI50 [4]: > 100 µM (inactive)
GI50 [5]: > 100 µM (inactive)
GI50 [6]: > 100 µM (inactive)
GI50 [7]: > 100 µM (inactive)
GI50 [8]: > 100 µM (inactive)
GI50 [9]: > 100 µM (inactive)
GI50 [10]: > 100 µM (inactive)
GI50 [11]: > 100 µM (inactive)
GI50 [12]: > 100 µM
GI50 [13]: 66.4 µM (inactive)
GI50 [14]: > 100 µM (inactive)
GI50 [15]: 37.3 µM (inactive)
GI50 [16]: > 100 µM (inactive)
GI50 [17]: 35.5 µM (inactive)
GI50 [18]: 49.4 µM (inactive)
GI50 [19]: 91.4 µM (inactive)
GI50 [20]: 72.1 µM (inactive)
GI50 [21]: > 100 µM (inactive)
GI50 [22]: 76.9 µM (inactive)
GI50 [23]: > 100 µM (inactive)
GI50 [24]: 66.4 µM (inactive)
GI50 [25]: 82.6 µM (inactive)
GI50 [26]: 31.3 µM (inactive)
GI50 [27]: 54.1 µM (inactive)
GI50 [28]: > 100 µM (inactive)
GI50 [29]: > 100 µM (inactive)
GI50 [30]: > 100 µM (inactive)
GI50 [31]: 28.1 µM (inactive)
GI50 [32]: > 100 µM (inactive)
GI50 [33]: > 100 µM (inactive)
GI50 [34]: > 100 µM (inactive)
GI50 [35]: > 100 µM (inactive)
GI50 [36]: > 100 µM (inactive)
GI50 [37]: 36.8 µM (inactive)
GI50 [38]: 64.4 µM (inactive)
GI50 [39]: 75.2 µM (inactive)
GI50 [40]: 61.2 µM (inactive)
GI50 [41]: > 100 µM (inactive)
GI50 [42]: > 100 µM (inactive)
GI50 [43]: > 100 µM (inactive)
GI50 [44]: 34.4 µM (inactive)
GI50 [45]: > 100 µM (inactive)
GI50 [46]: > 100 µM (inactive)
GI50 [47]: > 100 µM (inactive)
GI50 [48]: 30.8 µM (inactive)
GI50 [49]: > 100 µM (inactive)
GI50 [50]: 84.3 µM (inactive)
GI50 [51]: > 100 µM (inactive)
GI50 [52]: > 100 µM (inactive)
GI50 [53]: > 100 µM (inactive)
GI50 [54]: > 100 µM (inactive)
GI50 [55]: 48.8 µM (inactive)

CC1(C)O[C@H]2Cn3c(c(C#N)c4ccccc43)[C@H]2O1
GI50 [1]: > 100 µM (inactive)
GI50 [3]: > 100 µM (inactive)
GI50 [4]: > 100 µM (inactive)
GI50 [5]: > 100 µM (inactive)
GI50 [6]: 85.1 µM (inactive)
GI50 [7]: > 100 µM (inactive)
GI50 [8]: > 100 µM (inactive)
GI50 [9]: > 100 µM (inactive)
GI50 [10]: > 100 µM (inactive)
GI50 [11]: > 100 µM (inactive)
GI50 [12]: > 100 µM
GI50 [13]: > 100 µM (inactive)
GI50 [14]: > 100 µM (inactive)
GI50 [15]: > 100 µM (inactive)
GI50 [16]: > 100 µM (inactive)
GI50 [17]: > 100 µM (inactive)
GI50 [56]: > 100 µM (inactive)
GI50 [19]: > 100 µM (inactive)
GI50 [21]: > 100 µM (inactive)
GI50 [22]: > 100 µM (inactive)
GI50 [23]: > 100 µM (inactive)
GI50 [24]: > 100 µM (inactive)
GI50 [25]: > 100 µM (inactive)
GI50 [27]: > 100 µM (inactive)
GI50 [29]: > 100 µM (inactive)
GI50 [30]: > 100 µM (inactive)
GI50 [31]: > 100 µM (inactive)
GI50 [32]: > 100 µM (inactive)
GI50 [33]: > 100 µM (inactive)
GI50 [34]: > 100 µM (inactive)
GI50 [35]: > 100 µM (inactive)
GI50 [37]: > 100 µM (inactive)
GI50 [39]: > 100 µM (inactive)
GI50 [40]: > 100 µM (inactive)
GI50 [41]: > 100 µM (inactive)
GI50 [42]: > 100 µM (inactive)
GI50 [43]: > 100 µM (inactive)
GI50 [44]: > 100 µM (inactive)
GI50 [45]: > 100 µM (inactive)
GI50 [46]: > 100 µM (inactive)
GI50 [47]: > 100 µM (inactive)
GI50 [57]: 39.8 µM (inactive)
GI50 [48]: > 100 µM (inactive)
GI50 [50]: > 100 µM (inactive)
GI50 [51]: > 100 µM (inactive)
GI50 [52]: > 100 µM (inactive)
GI50 [54]: > 100 µM (inactive)
GI50 [55]: > 100 µM (inactive)

CCCCC1=NNC(=O)C1
GI50 [1]: > 100 µM (inactive)
GI50 [2]: > 100 µM (inactive)
GI50 [3]: > 100 µM (inactive)
GI50 [4]: > 100 µM (inactive)
GI50 [5]: > 100 µM (inactive)
GI50 [6]: > 100 µM (inactive)
GI50 [58]: > 100 µM (inactive)
GI50 [7]: > 100 µM (inactive)
GI50 [9]: > 100 µM (inactive)
GI50 [10]: > 100 µM (inactive)
GI50 [11]: > 100 µM (inactive)
GI50 [12]: > 100 µM
GI50 [13]: > 100 µM (inactive)
GI50 [14]: > 100 µM (inactive)
GI50 [15]: > 100 µM (inactive)
GI50 [16]: > 100 µM (inactive)
GI50 [17]: 4.9 µM (inactive)
GI50 [56]: > 100 µM (inactive)
GI50 [19]: > 100 µM (inactive)
GI50 [21]: > 100 µM (inactive)
GI50 [22]: > 100 µM (inactive)
GI50 [23]: > 100 µM (inactive)
GI50 [24]: > 100 µM (inactive)
GI50 [25]: > 100 µM (inactive)
GI50 [26]: > 100 µM (inactive)
GI50 [27]: > 100 µM (inactive)
GI50 [28]: > 100 µM (inactive)
GI50 [29]: > 100 µM (inactive)
GI50 [30]: > 100 µM (inactive)
GI50 [31]: > 100 µM (inactive)
GI50 [32]: > 100 µM (inactive)
GI50 [33]: > 100 µM (inactive)
GI50 [34]: > 100 µM (inactive)
GI50 [35]: > 100 µM (inactive)
GI50 [36]: > 100 µM (inactive)
GI50 [59]: > 100 µM (inactive)
GI50 [37]: > 100 µM (inactive)
GI50 [38]: > 100 µM (inactive)
GI50 [40]: > 100 µM (inactive)
GI50 [41]: > 100 µM (inactive)
GI50 [42]: > 100 µM (inactive)
GI50 [43]: > 100 µM (inactive)
GI50 [44]: > 100 µM (inactive)
GI50 [45]: > 100 µM (inactive)
GI50 [46]: > 100 µM (inactive)
GI50 [57]: > 100 µM (inactive)
GI50 [48]: > 100 µM (inactive)
GI50 [49]: > 100 µM (inactive)
GI50 [50]: > 100 µM (inactive)
GI50 [52]: > 100 µM (inactive)
GI50 [53]: > 100 µM (inactive)
GI50 [54]: > 100 µM (inactive)
GI50 [55]: > 100 µM (inactive)
